Data: article PMC8922281, “Synthesis and In Vitro Biological Evaluation of Quinolinyl Pyrimidines Targeting Type II NADH-Dehydrogenase (NDH-2)” (ACS Infectious Diseases, 2022)
pIC50: −log10 of the molar value. In brackets after ≈: the same amount, converted by molar mass. Several values for one entry are separate records, joined by “and”; a condition that tells them apart may be missing. Equal values may be shown once. Read-outs that look alike come from different tables or passages of the source.

Legend:
MtNDH-2 = MtNDH-2 (Mycobacterium tuberculosis, UniProt P95160); assay: biochemical; set-up: species or system M. tuberculosis; conditions: MtNDH-2 IC50
[1] = test system: E. coli (ATCC 25922, wild-type); assay: MIC on ESKAPE pathogens, E. coli wild-type; assay type: cell-based; conditions: Escherichia coli, ATCC25922; E. coli ATCC 25922, wild-type; read-out: MIC Ec WT
[2] = test system: E. coli (ΔtolC efflux-defective mutant, isogenic to ATCC 25922); assay: microbe, parasite or virus in culture; assay type: cell-based; conditions: Escherichia coli, ATCC25922, read-out: MIC Ec ΔtolC
[3] = test system: E. coli (D22, lpxC mutant, drug-hypersensitive); assay: microbe, parasite or virus in culture; assay type: cell-based; conditions: Escherichia coli, read-out: MIC Ec D22
[4] = test system: P. aeruginosa (PAO1, wild-type); assay: MIC on ESKAPE pathogens, P. aeruginosa wild-type; assay type: cell-based; conditions: Pseudomonas aeruginosa, PAO1, P. aeruginosa PAO1, wild-type; read-out: MIC Pa WT
[5] = test system: P. aeruginosa (PAO750 efflux-defective mutant, isogenic to PAO1); assay: microbe, parasite or virus in culture; assay type: cell-based; conditions: Pseudomonas aeruginosa, PAO1, read-out: MIC Pa efflux
[6] = test system: A. baumannii (ATCC 19606, wild-type); assay: MIC on ESKAPE pathogens, A. baumannii; assay type: cell-based; conditions: Acinetobacter baumannii, ATCC19606; A. baumannii ATCC 19606, wild-type; read-out: MIC Ab WT
[7] = test system: S. aureus (ATCC 29213, wild-type); assay: MIC on ESKAPE pathogens, S. aureus; assay type: cell-based; conditions: Staphylococcus aureus, ATCC29213
[8] = test system: M. tuberculosis strain H37Rv (ATCC 25618); assay: MIC on M. tuberculosis by resazurin reduction microplate assay (REMA); assay type: cell-based; conditions: Mycobacterium tuberculosis, M. tuberculosis H37Rv, read-out: MIC Mtb
[9] = test system: K. pneumonia (ATCC 13833, wild-type); assay: MIC on ESKAPE pathogens, K. pneumoniae
MsNDH-2 = MsNDH-2 (Mycolicibacterium smegmatis, UniProt A0QYD6); assay: Inhibition of MsNDH-2 (NADH oxidation with menadione, absorbance at 340 nm); assay type: biochemical, M. smegmatis
[10] = Cytotoxicity on the MRC-5 cell line (resazurin); assay type: cell-based; conditions: human, MRC-5SV2 cells, MRC-5SV2, 3 days
Protocol: MRC-5SV2 cells were cultured in Earl’s MEM + 5% FCSi. Assays were performed in 96-well microtiter plates, each well containing about 10^4 cells/well. After 3 days of incubation with or without compounds, cell viability was assessed fluorimetrically after the addition of resazurin (λex 550 nm, λem 590 nm). The results were expressed as % reduction in cell growth/viability compared to untreated control wells and CC50 was determined. Testing/retesting strategy was as described above for HepG2 cells.

[11] = test system: E. coli MG1655 ΔtolC resistant mutants; assay: microbe, parasite or virus in culture; assay type: cell-based; conditions: for MIC: Escherichia coli
[12] = 95% confidence interval in parentheses, 50 nM enzyme, 50 μM menadione, >100: no significant inhibition at 100 μM
[13] = same IC50 given in μg/mL to assist comparisons with MICs

MsNDH-2, sequence (A0QYD6 1-457): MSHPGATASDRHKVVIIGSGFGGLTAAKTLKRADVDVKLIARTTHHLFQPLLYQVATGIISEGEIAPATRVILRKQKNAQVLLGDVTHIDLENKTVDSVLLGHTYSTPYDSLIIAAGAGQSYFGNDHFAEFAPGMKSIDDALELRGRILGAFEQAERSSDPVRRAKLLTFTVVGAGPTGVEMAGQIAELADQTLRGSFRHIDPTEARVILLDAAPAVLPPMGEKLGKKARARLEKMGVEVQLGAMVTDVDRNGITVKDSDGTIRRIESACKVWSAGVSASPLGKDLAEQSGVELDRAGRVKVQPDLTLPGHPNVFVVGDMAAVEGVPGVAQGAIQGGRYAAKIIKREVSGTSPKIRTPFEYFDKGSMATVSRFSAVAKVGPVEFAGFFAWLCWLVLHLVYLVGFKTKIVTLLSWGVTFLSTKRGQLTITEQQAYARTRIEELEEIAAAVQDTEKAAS
MtNDH-2, sequence (P95160 2-463, added parts left off): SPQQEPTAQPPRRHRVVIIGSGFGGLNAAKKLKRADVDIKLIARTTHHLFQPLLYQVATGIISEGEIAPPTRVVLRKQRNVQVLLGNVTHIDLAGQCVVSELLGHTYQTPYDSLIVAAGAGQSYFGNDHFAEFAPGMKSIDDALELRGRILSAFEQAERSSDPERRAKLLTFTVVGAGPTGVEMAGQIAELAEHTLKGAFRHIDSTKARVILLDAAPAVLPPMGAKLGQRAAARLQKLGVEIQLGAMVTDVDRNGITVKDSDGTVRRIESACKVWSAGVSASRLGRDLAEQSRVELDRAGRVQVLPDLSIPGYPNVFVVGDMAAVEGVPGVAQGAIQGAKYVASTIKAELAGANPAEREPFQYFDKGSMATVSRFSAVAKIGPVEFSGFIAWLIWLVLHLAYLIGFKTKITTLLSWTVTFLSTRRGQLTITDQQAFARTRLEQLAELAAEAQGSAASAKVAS

| SMILES | pIC50 (MtNDH-2) | MIC [1] [µg/mL] | MIC [2] [µg/mL] | MIC [3] [µg/mL] | MIC [4] [µg/mL] | MIC [5] [µg/mL] | MIC [6] [µg/mL] | MIC [7] [µg/mL] | MIC [8] [µg/mL] | MIC Kp WT [9] [µg/mL] | pIC50 (MsNDH-2; [12]) | pIC50 (MsNDH-2; [13]) | IC50 at 3 days ([10]; resazurin) [µM] | IC50 at 3 days ([10]; value in parentheses) [µg/mL] | other results |
| --- | --- | --- | --- | --- | --- | --- | --- | --- | --- | --- | --- | --- | --- | --- | --- |
| Nc1ccc2nc(-c3ccc(F)cc3)cc(N)c2c1 [Compound 6, 2-(4-Fluorophenyl)quinoline-4,6-diamine] | 5.92 and 5.93 | > 64 | > 64 | 64 (≈ 253 µM) | > 64 | 64 (≈ 253 µM) | > 64 | 64 (≈ 253 µM) | 12.5 (≈ 49.4 µM) | >64 |  |  |  |  |  |
| Nc1nc(Cl)cc(Nc2ccc3nc(-c4ccc(F)cc4)cc(N)c3c2)n1 [Compound 7, N^6-(2-Amino-6-chloropyrimidin-4-yl)-2-(4-fluorophenyl)quinoline-4,6-diamine] |  | > 128 | 64 (≈ 168 µM) | 16 (≈ 42 µM) | > 128 | 16 (≈ 42 µM) | 2 (≈ 5.25 µM) | 4 (≈ 10.5 µM) | 4.7 (≈ 12.3 µM) | >128 | 5.51 | 5.50 | 1.1 | 0.4 |  |
| Nc1nc(Nc2ccc3nc(-c4ccc(F)cc4)cc(N)c3c2)cc(N2CCNCC2)n1 [Compound 8a, N^6-(2-Amino-6-(piperazin-1-yl)pyrimidin-4-yl)-2-(4-fluorophenyl)quinoline-4,6-diamine] | 5.51 and 5.52 | 8 (≈ 18.6 µM) |  | 4 (≈ 9.29 µM) | 8 (≈ 18.6 µM) | 4 (≈ 9.29 µM) | > 64 | 32 (≈ 74.3 µM) | > 43 | >64 | 5.01 | 5.01 | 24 | 10 | MIC ([11]; MG1655, read-out: MIC mutant, mutant CH4954 raised against 8a, basS (pmrB) Glu121Lys waaY (rfaY) Asp160fs): 8 µg/mL (≈ 18.6 µM); MIC ([11]; MG1655, read-out: MIC mutant, mutant CH4955 raised against 8a, basR (pmrA) Gly53Glu): 16 µg/mL (≈ 37.2 µM); MIC ([11]; MG1655, read-out: MIC mutant, mutant CH4956 raised against 8a, basS (pmrB) Leu10Arg): 8 µg/mL (≈ 18.6 µM); MIC ([11]; MG1655, read-out: MIC mutant, mutant CH4957 raised against 8a, asmA Asn295fs waaP (rfaP) Glu258 stop codon): 16 µg/mL (≈ 37.2 µM); MIC ([11]; MG1655, read-out: MIC mutant, mutant CH5084 raised against 8a, basS (pmrB) Ala159Pro preB Ala13fs): 16 µg/mL (≈ 37.2 µM); fold increase of MIC ([11]; mutant CH4954 vs parent E. coli MG1655 ΔtolC): 2; fold increase of MIC ([11]; mutant CH4955 vs parent E. coli MG1655 ΔtolC): 4; fold increase of MIC ([11]; mutant CH4956 vs parent E. coli MG1655 ΔtolC): 2; fold increase of MIC ([11]; mutant CH4957 vs parent E. coli MG1655 ΔtolC): 4; fold increase of MIC ([11]; mutant CH5084 vs parent E. coli MG1655 ΔtolC): 4 |
| Nc1nc(Nc2ccc3nc(-c4ccc(F)cc4)cc(N)c3c2)cc(N2CCOCC2)n1 [Compound 8b, N^6-(2-Amino-6-morpholinopyrimidin-4-yl)-2-(4-fluorophenyl) quinoline-4,6-diamine] |  | 64 (≈ 148 µM) | 16 (≈ 37.1 µM) | 16 (≈ 37.1 µM) | ≥ 64 | 32 (≈ 74.2 µM) | 16 (≈ 37.1 µM) | 32 (≈ 74.2 µM) |  | 64 (≈ 148 µM) | < 4.00 | < 4.00 |  |  |  |
| CN(C)C1CCN(c2cc(Nc3ccc4nc(-c5ccc(F)cc5)cc(N)c4c3)nc(N)n2)CC1 [Compound 8f, N^6-(2-Amino-6-(4-(dimethylamino)piperidin-1-yl)pyrimidin-4-yl)-2-(4-fluorophenyl)quinoline-4,6-diamine] | 5.25 and 5.26 | > 128 | 32 (≈ 67.7 µM) | 32 (≈ 67.7 µM) | 32 (≈ 67.7 µM) |  | > 128 | > 128 | 10.9 (≈ 23.1 µM) | >128 | < 4.00 | < 4.00 |  |  |  |
| NCC1CCN(c2cc(Nc3ccc4nc(-c5ccc(F)cc5)cc(N)c4c3)nc(N)n2)CC1 [Compound 8h, N^6-(2-Amino-6-(4-(aminomethyl)piperidin-1-yl)pyrimidin-4-yl)-2-(4-fluorophenyl)quinoline-4,6-diamine] |  | 64 (≈ 140 µM) | 16 (≈ 34.9 µM) | 8 (≈ 17.4 µM) | 4 (≈ 8.72 µM) | 8 (≈ 17.4 µM) | > 128 | 32 (≈ 69.8 µM) | > 46 | >128 | 5.16 | 5.16 | 8 | 3.7 |  |
| Nc1nc(Nc2ccc3nc(-c4ccc(F)cc4)cc(N)c3c2)cc(N2CCCC(O)C2)n1 (stereo not drawn) [Compound 8o, 1-(2-Amino-6-((4-amino-2-(4-fluorophenyl)quinolin-6-yl)amino)pyrimidin-4-yl)piperidin-3-ol] | 5.47 | 32 (≈ 71.8 µM) | 16 (≈ 35.9 µM) | 16 (≈ 35.9 µM) | > 64 | 32 (≈ 71.8 µM) | 32 (≈ 71.8 µM) | 64 (≈ 144 µM) | 10.2 (≈ 22.9 µM) | >64 |  |  |  |  |  |
| Nc1nc(Nc2ccc3nc(-c4ccc(F)cc4)cc(N)c3c2)cc(N2CCC(O)CC2)n1 [Compound 8p, 1-(2-Amino-6-((4-amino-2-(4-fluorophenyl)quinolin-6-yl)amino)pyrimidin-4-yl)piperidin-4-ol] | 5.29 | 64 (≈ 144 µM) | 32 (≈ 71.8 µM) | 32 (≈ 71.8 µM) | > 64 | > 64 | 64 (≈ 144 µM) | 64 (≈ 144 µM) | 16.5 (≈ 37 µM) | >64 |  |  |  |  |  |
| Nc1nc(Nc2ccc3nc(-c4ccc(F)cc4)ccc3c2)cc(N2CCNCC2)n1 [Compound 21, N^4-(2-(4-Fluorophenyl)quinolin-6-yl)-6-(piperazin-1-yl)pyrimidine-2,4-diamine] |  | 16 (≈ 38.5 µM) | 8 (≈ 19.3 µM) | 16 (≈ 38.5 µM) | > 64 | 4 (≈ 9.63 µM) | 32 (≈ 77 µM) | 8 (≈ 19.3 µM) | 22.3 (≈ 53.7 µM) | 64 (≈ 154 µM) | 4.49 | 4.50 | 8 | 3.3 |  |
| Fc1ccc(-c2ccc3cc(Nc4cc(N5CCNCC5)ncn4)ccc3n2)cc1 [Compound 23, 2-(4-Fluorophenyl)-N-(6-(piperazin-1-yl)pyrimidin-4-yl)quinolin-6-amine] |  | > 64 | 8 (≈ 20 µM) | 16 (≈ 40 µM) | > 64 | 4 (≈ 9.99 µM) | 64 (≈ 160 µM) | 8 (≈ 20 µM) | 7.1 (≈ 17.7 µM) | 64 (≈ 160 µM) | 4.62 | 4.62 | 7.9 | 3.2 |  |
